Assay results as given in PubChem BioAssay AID651875 (NMMLSC, 2012).

system: AM2.2 cells FAP-GPR32, fluorogen binding, flow cytometry MCF; experiment: fluorogen binding to FAP-tagged GPR32, dose response, counter-screen for beta2AR agonist internalization project, AM2.2 cells, flow cytometry, powder set 4 (AID 651875)

SMILES	EC50 [nM]
Cc1ccc(S(=O)(=O)N(C)CC(=O)N2CCN(c3ccccn3)CC2)cc1	3.7
COc1ccccc1N1CCN(C(=O)CN(C)S(=O)(=O)c2ccc(C)cc2)CC1	974
O=C(C1CCC(=O)N1S(=O)(=O)c1ccccc1)N1CCN(c2ccccn2)CC1 (stereo not given)	49.6
CC(=O)Nc1ccc(S(=O)(=O)N2CCCCC2c2cccnc2)cc1 (stereo not given)	15.6
O=C(CN(Cc1ccccc1)S(=O)(=O)c1ccc(Cl)cc1)N1CCN(c2ccccn2)CC1	316
